Measurements as given in PubChem BioAssay AID2305 (GlaxoSmithKline (GSK), 2010).

test system: P. falciparum 3D7 growth, pLDH absorbance; test: blood-stage malaria parasite growth potency – strain 3D7, dose response (AID 2305)

COC(=O)c1ccccc1N1CCN(CCCCNC(=O)c2ccc(NC(=O)c3cc(Cl)cc(Cl)c3)cc2)CC1 and Cc1ccc(NC(=O)N2CCCN(CCCCCNC(=O)/C=C/c3ccc(Cl)c(Cl)c3)CC2)cc1 are within 1.5-fold of each other in IC50: 0.56 µM for the first, 0.76 µM for the second.

First: Cc1ccc2nc(C)cc(NN=Cc3ccccc3[N+](=O)[O-])c2c1
Second: Cc1ccc(Nc2nc(N)c3ccccc3n2)cc1
The IC50 of the first is 4.9-fold lower: 0.17 µM for the first, 0.84 µM for the second. The first is the more potent here.

C=C(C)C1CC=C(CN2CCC(N3CCc4cc(NC(=O)c5cc(C)on5)ccc43)C2)CC1 (stereo not drawn) and Cc1ccc2[nH]cc(/C=C/C(=O)NC3CCC(CCN4CCc5ccc(C#N)cc5CC4)CC3)c2c1 (stereo not drawn) are within 1.5-fold of each other in IC50: 0.71 µM for the first, 0.92 µM for the second.

CC(C)(C)OC(=O)Nc1cccc(-c2csc(N=C(N)N)n2)c1 and NC(=NCc1ccc(O)cc1)Nc1nc(-c2ccc(OCCCn3ccnc3)cc2)cs1 are within 1.5-fold of each other in IC50: 0.84 µM for the first, 0.75 µM for the second.

C[C@@H]1CN(c2cnn(Cc3cccc(NC(=O)Nc4cccc(C(F)(F)F)c4)c3)c(=O)c2Cl)C[C@H](C)N1 and O=C(Nc1ccc(Cl)c(Cl)c1)C1CCC(=O)N1[C@@H](Cc1ccccc1)C(=O)NCCc1ccc(Cl)cc1 (stereo partly drawn) are within 1.5-fold of each other in IC50: 0.82 µM for the first, 1.1 µM for the second.

Going from O=S(=O)(NCCN1CCCC1)c1ccc(-c2ccc(CNC3Cc4ccccc4C3)cc2)cc1 to N#Cc1ccc(-c2ccc(C(=O)NCCCCN3CCC(c4nc5ccccc5[nH]4)CC3)cc2)cc1, the IC50 rises from 0.66 µM to 1.01 µM (1.5-fold). The first is the more potent here.

Compared with Cc1[nH]c(/C=C2\C(=O)Nc3ccc(S(=O)(=O)Cc4c(Cl)cccc4Cl)cc32)c(C)c1C(=O)N1CCC[C@@H]1CN1CCCC1, CCC(C)NS(=O)(=O)c1ccc2nc(Nc3ccc(C)cc3)n(C3CCCCC3)c2c1 (stereo not drawn) is 1.6-fold lower in IC50: 0.72 µM for the first, 0.46 µM for the second.

COc1ccccc1C1CC(c2ccc(Br)cc2)=NN1C(=O)c1ccccc1 (stereo not drawn) and COc1ccc(Cl)cc1C(=O)Nc1ccc(-c2nc3ccccc3[nH]2)cc1 are within 1.5-fold of each other in IC50: 1.11 µM for the first, 0.77 µM for the second.

O=[N+]([O-])c1ccc(N2CCCN(C(=S)Nc3ccc(F)cc3Br)CC2)nc1 and CNC(=O)c1cnc(Nc2ccc(N3CCN(C)CC3)cc2)nc1Nc1cccc([N+](=O)[O-])c1 are within 1.5-fold of each other in IC50: 0.3 µM for the first, 0.29 µM for the second.

Cc1cc(C)c2c(c1)C(=NO)CCN2 and Cc1[nH]c(C)c(-c2ccc(Cl)cc2)c(=O)c1I are within 1.5-fold of each other in IC50: 0.94 µM for the first, 0.67 µM for the second.

COc1ccc2c(c1)c(C1CCN(CCCCNC(=O)c3ccc(-c4ccc(C(F)(F)F)cc4)cc3)CC1)cn2C(C)C and COc1cc(-n2cnc3cc(-c4ccc(Cl)cc4)sc3c2=O)ccc1OCCN1CCC(c2cccc(NC(C)=O)c2)CC1 are within 1.5-fold of each other in IC50: 0.73 µM for the first, 0.55 µM for the second.

c1cc(CNCC2CCN(CC3CCCCC3)CC2)cc(-n2ccnc2)c1 and COc1ccc(N2CCN(C(CNC(=O)C3CCCCC3)c3ccc4c(c3)OCO4)CC2)cc1 (stereo not drawn) are within 1.5-fold of each other in IC50: 0.54 µM for the first, 0.57 µM for the second.

Going from O=C(Nc1ccc(Cl)cc1Cl)N[C@H]1CCN(CCCCCNC(=O)[C@@H]2C[C@H]2c2ccc(Cl)c(Cl)c2)C1 to O=C(/C=C/c1ccc(Cl)c(Cl)c1)NCCCCCN1CCC(NC(=O)Nc2cc(Cl)ccc2Cl)CC1, the IC50 falls from 0.99 µM to 0.43 µM (2.3-fold). The second is the more potent here.

Compared with CC1(C)N=C(N)N=C(N)N1OCc1nc(N)nc(Nc2ccccc2)n1, COc1ccc(C=Cc2cc(N)c3ccccc3n2)cc1Br is 2.6-fold higher in IC50: 0.27 µM for the first, 0.71 µM for the second. The first is the more potent here.

Compared with CC(Cc1ccc(SCCSc2ccccc2)cc1)NCC(O)c1cccc(Cl)c1 (stereo not drawn), Oc1ccc(CCNc2nc(NCCOc3ccccc3-c3ccccc3)nc(N3CCNCC3)n2)cc1 is 2.8-fold higher in IC50: 0.37 µM for the first, 1.04 µM for the second.

Going from COc1ccc2ncc(Cl)c([C@@H](O)CN3CCC(NCc4cc5c(cn4)OCCO5)CC3)c2c1 to COc1ccc(CCn2c(=N)c(C(=O)NC3CCCC3)cc3c(=O)n4ccccc4nc32)cc1, the IC50 rises from 0.06 µM to 0.68 µM (11-fold).

Going from O=C(/C=C/c1ccc(Cl)c(Cl)c1)NCCCCCN1CCCN(C(=O)Nc2cc(Cl)nc(Cl)c2)CC1 to O=C(CSc1nccn1C1CCCC1)Nc1cc(C(F)(F)F)ccc1Cl, the IC50 falls from 0.79 µM to 0.38 µM (2.1-fold). The second is the more potent here.

Going from O=C(Nc1ccc(-c2cccc(-c3nc4ccccc4[nH]3)c2)cc1)Nc1ccsc1 to N#Cc1ccc(CN2CCC(Oc3ccc(NC(=O)c4cccs4)cc3)C2)cc1 (stereo not drawn), the IC50 rises from 0.25 µM to 0.95 µM (3.8-fold).

Cn1cnnc1Sc1ccc(CN2CCOc3ccc(C4=CCCCC4)cc3C2)o1 and COC(=O)c1ccccc1COc1ccc(CC2(NC(=O)[C@H](Nc3ccc(C#N)c4ccccc34)C(C)(C)C)CCCC2)cc1 are within 1.5-fold of each other in IC50: 0.85 µM for the first, 0.86 µM for the second.
